Source: patent US8859569B2, “Substituted annellated pyrimidines and use thereof” (Bayer Pharma Aktiengesellschaft, priority 2011, dated 2014)

Experiments:
[1] = target: T1, recombinant guanylate cyclase reporter cell line (Rattus norvegicus, UniProt P19686+P20595); assay: Action on recombinant guanylate cyclase reporter cell line; type: cell-based
T1 construct: expressed in transfected cells
T1 sequence (P20595 1-619): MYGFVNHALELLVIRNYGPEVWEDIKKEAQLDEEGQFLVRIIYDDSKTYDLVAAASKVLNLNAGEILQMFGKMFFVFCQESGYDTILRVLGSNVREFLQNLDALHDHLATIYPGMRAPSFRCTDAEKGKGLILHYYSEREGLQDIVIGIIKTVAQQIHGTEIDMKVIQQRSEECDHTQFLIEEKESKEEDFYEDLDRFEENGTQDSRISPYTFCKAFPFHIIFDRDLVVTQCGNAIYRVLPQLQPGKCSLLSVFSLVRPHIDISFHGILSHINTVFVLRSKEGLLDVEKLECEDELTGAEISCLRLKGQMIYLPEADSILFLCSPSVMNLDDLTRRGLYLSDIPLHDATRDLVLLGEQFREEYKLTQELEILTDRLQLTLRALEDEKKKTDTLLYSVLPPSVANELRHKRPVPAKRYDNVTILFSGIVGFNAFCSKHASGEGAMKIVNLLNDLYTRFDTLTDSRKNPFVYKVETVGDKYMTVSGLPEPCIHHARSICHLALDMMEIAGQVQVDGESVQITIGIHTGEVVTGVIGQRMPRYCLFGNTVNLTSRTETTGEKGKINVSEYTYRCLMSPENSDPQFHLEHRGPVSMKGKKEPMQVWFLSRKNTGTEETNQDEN
T1 sequence (P19686 1-690): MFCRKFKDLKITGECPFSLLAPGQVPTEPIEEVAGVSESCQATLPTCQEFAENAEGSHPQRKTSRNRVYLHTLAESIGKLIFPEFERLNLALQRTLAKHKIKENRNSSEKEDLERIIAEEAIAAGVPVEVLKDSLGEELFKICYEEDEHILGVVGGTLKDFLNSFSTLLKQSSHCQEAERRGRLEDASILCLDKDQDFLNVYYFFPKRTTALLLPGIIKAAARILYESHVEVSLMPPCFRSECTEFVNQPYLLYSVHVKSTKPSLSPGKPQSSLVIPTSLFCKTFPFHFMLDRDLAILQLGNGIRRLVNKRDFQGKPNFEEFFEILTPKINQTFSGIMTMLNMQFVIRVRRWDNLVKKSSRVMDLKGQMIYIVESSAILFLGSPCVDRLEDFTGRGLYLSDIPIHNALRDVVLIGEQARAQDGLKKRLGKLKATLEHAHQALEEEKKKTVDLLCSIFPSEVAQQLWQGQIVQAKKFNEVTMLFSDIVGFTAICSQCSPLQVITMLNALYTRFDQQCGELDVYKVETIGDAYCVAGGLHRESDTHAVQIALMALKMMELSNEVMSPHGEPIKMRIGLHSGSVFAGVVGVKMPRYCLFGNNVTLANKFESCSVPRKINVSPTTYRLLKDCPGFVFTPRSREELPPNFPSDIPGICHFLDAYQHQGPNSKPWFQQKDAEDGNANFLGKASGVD
Experimental: B-2. Action on Recombinant Guanylate Cyclase Reporter Cell Line
The cellular action of the compounds according to the invention is determined on a recombinant guanylate cyclase reporter cell line, as described in F. Wunder et al., Anal. Biochem. 339, 104-112 (2005).

[2] = target: T2, human phosphodiesterase 5 (PDE-5) (Homo sapiens, UniProt O76074); assay: Inhibition of human phosphodiesterase 5 (PDE-5), SPA assay; type: biochemical; settings: PDE-5 preparation from human platelets, [8-3H]cGMP substrate
T2 construct: PDE-5 preparations are obtained from human platelets by lysis; from tissue; host or cells: human platelets
Experimental: B-6. Inhibition of Human Phosphodiesterase 5 (PDE-5)
PDE-5 preparations are obtained from human platelets by lysis (Microfluidizer®, 800 bar, 3 passages), followed by centrifugation (75000 g, 60 min, 4° C.) and ion-exchange chromatography of the supernatant on a Mono Q 10/10 column (linear sodium chloride gradient, elution with a 0.2-0.3M solution of sodium chloride in buffer (20 mM Hepes pH 7.2, 2 mM magnesium chloride). Fractions that have PDE-5 activity are combined (PDE-5 preparation) and stored at −80° C.
For determining their in-vitro action on human PDE-5, the test substances are dissolved in 100% DMSO and serial dilutions are prepared. Typically, dilution series (1:3) from 200 μM to 0.091 μM are prepared (resultant final concentrations in the test: 4 μM to 0.0018 μM). In each case 2 μL of the diluted solutions of the substance are put in the wells of microtitre plates (Isoplate-96/200W; Perkin-Elmer). Then 50 μL of a dilution of the PDE-5 preparation described above is added. The dilution of the PDE-5 preparation is selected so that during subsequent incubation less than 70% of the substrate is reacted (typical dilution: 1:100; dilution buffer: 50 mM Tris/hydrochloric acid pH 7.5, 8.3 mM magnesium chloride, 1.7 mM EDTA, 0.2% BSA). The substrate [8-^3H]cyclic guanosine-3′,5′-monophosphate (1 μCi/μL; Perkin-Elmer) is diluted 1:2000 with assay buffer (50 mM Tris/hydrochloric acid pH 7.5, 8.3 mM magnesium chloride, 1.7 mM EDTA) to a concentration of 0.0005 μCi/μL. The enzyme reaction is finally started by adding 50 μL (0.025 μCi) of the diluted substrate. The test preparations are incubated for 60 min at room temperature and the reaction is stopped by adding 25 μL of a suspension of 18 mg/mL of Yttrium Scintillation Proximity Beads in water (phosphodiesterase beads for SPA assays, RPNQ 0150, Perkin-Elmer). The microtitre plates are sealed with film and left to stand for 60 min at room temperature. Then the plates are measured for 30 s per well in a Microbeta scintillation counter (Perkin-Elmer). IC50 values are determined on the basis of the graphs plotted of the substance concentration versus the percentage PDE-5 inhibition.

| SMILES | MEC (minimal effective concentration) [1] [μm] | IC50 [2] [nM] |
| --- | --- | --- |
| CC1(C)C(=O)Nc2nc(-c3nn(Cc4ccccc4F)c4ncccc34)nc(NCCn3ccnn3)c21 [Example 47, 2-[1-(2-fluorobenzyl)-1H-pyrazolo[3,4-b]pyridin-3-yl]-5,5-dimethyl-4-{[2-(1H-1,2,3-triazol-1-yl)ethyl]amino}-5,7-dihydro-6H-pyrrolo[2,3-d]pyrimidin-6-one] | 0.1 | 83 |
| Cn1ccc(CNc2nc(-c3nn(Cc4ccccc4F)c4ncccc34)nc3c2C(C)(C)C(=O)N3)n1 [Example 48, 2-[1-(2-fluorobenzyl)-1H-pyrazolo[3,4-b]pyridin-3-yl]-5,5-dimethyl-4-{[(1-methyl-1H-pyrazol-3-yl)methyl]amino}-5,7-dihydro-6H-pyrrolo[2,3-d]pyrimidin-6-one] | 0.1 | 54 |
| Cc1cc(Nc2nc(-c3nn(Cc4ccccc4F)c4ncccc34)nc3c2C(C)(C)C(=O)N3)nn1C [Example 50, 4-[(1,5-dimethyl-1H-pyrazol-3-yl)amino]-2-[1-(2-fluorobenzyl)-1H-pyrazolo[3,4-b]pyridin-3-yl]-5,5-dimethyl-5,7-dihydro-6H-pyrrolo[2,3-d]pyrimidin-6-one] | 0.1 | 40 |
| CC1(C)C(=O)Nc2nc(-c3nn(Cc4ccccc4F)c4ncccc34)nc(N[C@@H]3CCCOC3)c21 [Example 51, 2-[1-(2-fluorobenzyl)-1H-pyrazolo[3,4-b]pyridin-3-yl]-5,5-dimethyl-4-(tetrahydro-2H-pyran-3-ylamino)-5,7-dihydro-6H-pyrrolo[2,3-d]pyrimidin-6-one] | 0.03 | 5 |
| CC1(C)C(=O)Nc2nc(-c3nn(Cc4ccccc4F)c4ncccc34)nc(N3CCC(O)CC3)c21 [Example 52, 2-[1-(2-fluorobenzyl)-1H-pyrazolo[3,4-b]pyridin-3-yl]-4-(4-hydroxypiperidin-1-yl)-5,5-dimethyl-5,7-dihydro-6H-pyrrolo[2,3-d]pyrimidin-6-one] | 0.01 | 34 |
| COC1CN(c2nc(-c3nn(Cc4ccccc4F)c4ncccc34)nc3c2C(C)(C)C(=O)N3)C1 [Example 53, 2-[1-(2-fluorobenzyl)-1H-pyrazolo[3,4-b]pyridin-3-yl]-4-(3-methoxyazetidin-1-yl)-5,5-dimethyl-5,7-dihydro-6H-pyrrolo[2,3-d]pyrimidin-6-one] | 3.0 | 150 |
| CC1(C)C(=O)Nc2nc(-c3nn(Cc4ccccc4F)c4ncccc34)nc(NCc3ccccn3)c21 [Example 55, 2-[1-(2-fluorobenzyl)-1H-pyrazolo[3,4-b]pyridin-3-yl]-5,5-dimethyl-4-[(pyridin-2-ylmethyl)amino]-5,7-dihydro-6H-pyrrolo[2,3-d]pyrimidin-6-one] | 0.03 | 130 |
| COCCNc1nc(-c2nn(Cc3ccccc3F)c3ncccc23)nc2c1C(C)(C)C(=O)N2 [Example 56, 2-[1-(2-fluorobenzyl)-1H-pyrazolo[3,4-b]pyridin-3-yl]-4-[(2-methoxyethyl)amino]-5,5-dimethyl-5,7-dihydro-6H-pyrrolo[2,3-d]pyrimidin-6-one] | 0.03 | 34 |
| CC1(C)C(=O)Nc2nc(-c3nn(Cc4ccccc4F)c4ncccc34)nc(NCCn3cccn3)c21 [Example 58, 2-[1-(2-fluorobenzyl)-1H-pyrazolo[3,4-b]pyridin-3-yl]-5,5-dimethyl-4-{[2-(1H-pyrazol-1-yl)ethyl]amino}-5,7-dihydro-6H-pyrrolo[2,3-d]pyrimidin-6-one] | 0.03 | 270 |
| Cn1cc(CNc2nc(-c3nn(Cc4ccccc4F)c4ncccc34)nc3c2C(C)(C)C(=O)N3)cn1 [Example 59, 2-[1-(2-fluorobenzyl)-1H-pyrazolo[3,4-b]pyridin-3-yl]-5,5-dimethyl-4-{[(1-methyl-1H-pyrazol-4-yl)methyl]amino}-5,7-dihydro-6H-pyrrolo[2,3-d]pyrimidin-6-one] | 0.1 | 8 |

Results, then the molecule that gave them:

| MEC (minimal effective concentration) [1] [μm] | IC50 [2] [nM] | SMILES |
| --- | --- | --- |
| 0.3 | 430 | Cn1ccnc1CNc1nc(-c2nn(Cc3ccccc3F)c3ncccc23)nc2c1C(C)(C)C(=O)N2 [Example 60, 2-[1-(2-fluorobenzyl)-1H-pyrazolo[3,4-b]pyridin-3-yl]-5,5-dimethyl-4-{[(1-methyl-1H-imidazol-2-yl)methyl]amino}-5,7-dihydro-6H-pyrrolo[2,3-d]pyrimidin-6-one] |
| 0.03 | 100 | CCN(CCOC)c1nc(-c2nn(Cc3ccccc3F)c3ncccc23)nc2c1C(C)(C)C(=O)N2 [Example 61, 4-[ethyl(2-methoxyethyl)amino]-2-[1-(2-fluorobenzyl)-1H-pyrazolo[3,4-b]pyridin-3-yl]-5,5-dimethyl-5,7-dihydro-6H-pyrrolo[2,3-d]pyrimidin-6-one] |
| 0.1 | 480 | Cc1nccn1-c1nc(-c2nn(Cc3ccccc3F)c3ncccc23)nc2c1C(C)(C)C(=O)N2 [Example 62, 2-[1-(2-fluorobenzyl)-1H-pyrazolo[3,4-b]pyridin-3-yl]-5,5-dimethyl-4-(2-methyl-1H-imidazol-1-yl)-5,7-dihydro-6H-pyrrolo[2,3-d]pyrimidin-6-one] |
| 0.03 | 230 | CC(C)CCNc1nc(-c2nn(Cc3ccccc3F)c3ncccc23)nc2c1C(C)(C)C(=O)N2 [Example 63, 2-[1-(2-fluorobenzyl)-1H-pyrazolo[3,4-b]pyridin-3-yl]-5,5-dimethyl-4-[(3-methylbutyl)amino]-5,7-dihydro-6H-pyrrolo[2,3-d]pyrimidin-6-one] |
| 0.1 | 980 | CC1(C)C(=O)Nc2nc(-c3nn(Cc4ccccc4F)c4ncccc34)nc(N3CCCC3)c21 [Example 64, 2-[1-(2-fluorobenzyl)-1H-pyrazolo[3,4-b]pyridin-3-yl]-5,5-dimethyl-4-(pyrrolidin-1-yl)-5,7-dihydro-6H-pyrrolo[2,3-d]pyrimidin-6-one] |
| 0.1 | 430 | CC1(C)C(=O)Nc2nc(-c3nn(Cc4ccccc4F)c4ncccc34)nc(Nc3cccnc3)c21 [Example 65, 2-[1-(2-fluorobenzyl)-1H-pyrazolo[3,4-b]pyridin-3-yl]-5,5-dimethyl-4-(pyridin-3-ylamino)-5,7-dihydro-6H-pyrrolo[2,3-d]pyrimidin-6-one] |
